Test results as given in ChEMBL document CHEMBL3286379, “Design and synthesis of pyrimidine molecules endowed with thiazolidin-4-one as new anticancer agents” (Eur J Med Chem, 2014).

How the values were obtained:
Type in all cases: functional
[1] = tested on: CCRF-CEM; assay: Growth inhibition of human CCRF-CEM cells after 48 hrs by sulforhodamine B assay
[2] = tested on: K562; assay: Growth inhibition of human K562 cells after 48 hrs by sulforhodamine B assay; details: K562, 48 h
[3] = Growth inhibition of human HOP92 cells after 48 hrs by sulforhodamine B assay; details: HOP-92, 48 h
[4] = tested on: NCI-H226; assay: Growth inhibition of human NCI-H226 cells after 48 hrs by sulforhodamine B assay; details: NCI-H226, 48 h
[5] = tested on: NCI-H322M; assay: Growth inhibition of human NCI-H322M cells after 48 hrs by sulforhodamine B assay
[6] = tested on: NCI-H460; assay: Growth inhibition of human NCI-H460 cells after 48 hrs by sulforhodamine B assay; details: NCI-H460, 48 h
[7] = Growth inhibition of human HCC2998 cells after 48 hrs by sulforhodamine B assay; details: HCC 2998, 48 h
[8] = tested on: HT-29; assay: Growth inhibition of human HT-29 cells after 48 hrs by sulforhodamine B assay; details: HT-29, 48 h
[9] = tested on: SF-268; assay: Growth inhibition of human SF268 cells after 48 hrs by sulforhodamine B assay; details: SF-268, 48 h
[10] = tested on: M14; assay: Growth inhibition of human M14 cells after 48 hrs by sulforhodamine B assay; details: M14, 48 h
[11] = tested on: SK-MEL-2; assay: Growth inhibition of human SK-MEL-2 cells after 48 hrs by sulforhodamine B assay; details: SK-MEL-2, 48 h
[12] = Growth inhibition of human UACC62 cells after 48 hrs by sulforhodamine B assay; details: UACC-62, 48 h
[13] = Growth inhibition of human NCI-ADR-RES cells after 48 hrs by sulforhodamine B assay
[14] = tested on: ACHN; assay: Growth inhibition of human ACHN cells after 48 hrs by sulforhodamine B assay
[15] = Growth inhibition of human RXF393 cells after 48 hrs by sulforhodamine B assay; details: RXF 393, 48 h
[16] = tested on: PC-3; assay: Growth inhibition of human PC3 cells after 48 hrs by sulforhodamine B assay; details: PC-3, 48 h
[17] = tested on: DU-145; assay: Growth inhibition of human DU145 cells after 48 hrs by sulforhodamine B assay; details: DU-145, 48 h
[18] = tested on: MDA-MB-231; assay: Growth inhibition of human MDA-MB-231 cells after 48 hrs by sulforhodamine B assay; details: MDA-MB-231, 48 h
[19] = Growth inhibition of human BT549 cells after 48 hrs by sulforhodamine B assay; details: BT-549, 48 h
[20] = tested on: MDA-MB-468; assay: Growth inhibition of human MDA-MB-468 cells after 48 hrs by sulforhodamine B assay; details: MDA-MB-468, 48 h
[21] = read-out: LC50 (the source's name)
[22] = read-out: pLC50 (the source's name) (converted)

`Nc1nc(-c2ccccc2Cl)cc(-c2ccc(Cl)cc2Cl)n1` gave a GI50 ([1]; read-out: GI50) of 4.17 µM, a CC50 [1, 21] of over 100 µM and a TGI ([1]; read-out: TGI) of over 100 µM. The GI50 ([1]; read-out: pGI50 (converted)) was 4.17 µM, the CC50 [1, 22] was over 100 µM and the TGI ([1]; read-out: pTGI) was over 100 µM. It also gave a GI50 ([2]; read-out: GI50) of 3.97 µM, a CC50 [2, 21] of over 100 µM and a TGI ([2]; read-out: TGI) of over 100 µM. For the same compound, the GI50 ([2]; read-out: pGI50 (converted)) was 3.98 µM, the CC50 [2, 22] was over 100 µM and the TGI ([2]; read-out: pTGI) was over 100 µM. It also gave a GI50 ([3]; read-out: GI50) of 0.527 µM, a CC50 [3, 21] of over 100 µM and a TGI ([3]; read-out: TGI) of 7.62 µM. It also gave a GI50 ([3]; read-out: pGI50 (converted)) of 0.525 µM, a CC50 [3, 22] of over 100 µM and a TGI ([3]; read-out: pTGI (converted)) of 7.59 µM. The GI50 ([4]; read-out: GI50) was 81.1 µM, the CC50 [4, 21] was over 100 µM and the TGI ([4]; read-out: TGI) was over 100 µM. The GI50 ([4]; read-out: pGI50 (converted)) was 18.2 µM, the CC50 [4, 22] was over 100 µM and the TGI ([4]; read-out: pTGI) was over 100 µM. For the same compound, the GI50 ([5]; read-out: GI50) was 31.2 µM, the CC50 [5, 21] was over 100 µM and the TGI ([5]; read-out: TGI) was over 100 µM. It also gave a GI50 ([5]; read-out: pGI50 (converted)) of 30.9 µM, a CC50 [5, 22] of over 100 µM and a TGI ([5]; read-out: pTGI) of over 100 µM. It also gave a GI50 ([6]; read-out: GI50) of 3.31 µM, a CC50 [6, 21] of over 100 µM and a TGI ([6]; read-out: TGI) of 23.1 µM. The GI50 ([6]; read-out: pGI50 (converted)) was 3.31 µM, the CC50 [6, 22] was over 100 µM and the TGI ([6]; read-out: pTGI (converted)) was 22.9 µM. It also gave a GI50 ([7]; read-out: GI50) of 7.19 µM, a CC50 [7, 21] of over 100 µM and a TGI ([7]; read-out: TGI) of 44 µM. The GI50 ([7]; read-out: pGI50 (converted)) was 7.24 µM, the CC50 [7, 22] was over 100 µM and the TGI ([7]; read-out: pTGI) was 43.7 µM. The GI50 ([8]; read-out: GI50) was 4.32 µM, the CC50 [8, 21] was over 100 µM and the TGI ([8]; read-out: TGI) was 24.3 µM. It also gave a GI50 ([8]; read-out: pGI50 (converted)) of 4.37 µM, a CC50 [8, 22] of over 100 µM and a TGI ([8]; read-out: pTGI (converted)) of 24.5 µM. It also gave a GI50 ([9]; read-out: GI50) of 5.01 µM, a CC50 [9, 21] of over 100 µM and a TGI ([9]; read-out: TGI) of 81.6 µM. The GI50 ([9]; read-out: pGI50 (converted)) was 5.01 µM, the CC50 [9, 22] was over 100 µM and the TGI ([9]; read-out: pTGI (converted)) was 81.3 µM. It also gave a GI50 ([10]; read-out: GI50) of 5.95 µM, a CC50 [10, 21] of over 100 µM and a TGI ([10]; read-out: TGI) of over 100 µM. For the same compound, the GI50 ([10]; read-out: pGI50 (converted)) was 5.89 µM, the CC50 [10, 22] was over 100 µM and the TGI ([10]; read-out: pTGI) was over 100 µM. It also gave a GI50 ([11]; read-out: GI50) of 6.1 µM, a CC50 [11, 21] of over 100 µM and a TGI ([11]; read-out: TGI) of 44.7 µM. The GI50 ([11]; read-out: pGI50 (converted)) was 6.17 µM, the CC50 [11, 22] was over 100 µM and the TGI ([11]; read-out: pTGI (converted)) was 44.7 µM. The GI50 ([12]; read-out: GI50) was 5.93 µM, the CC50 [12, 21] was over 100 µM and the TGI ([12]; read-out: TGI) was 44.2 µM. It also gave a GI50 ([12]; read-out: pGI50 (converted)) of 5.89 µM, a CC50 [12, 22] of over 100 µM and a TGI ([12]; read-out: pTGI (converted)) of 44.7 µM. The GI50 ([13]; read-out: GI50) was 14.8 µM, the CC50 [13, 21] was over 100 µM and the TGI ([13]; read-out: TGI) was over 100 µM. The GI50 ([13]; read-out: pGI50 (converted)) was 14.8 µM, the CC50 [13, 22] was over 100 µM and the TGI ([13]; read-out: pTGI) was over 100 µM. For the same compound, the GI50 ([14]; read-out: GI50) was 10.4 µM, the CC50 [14, 21] was over 100 µM and the TGI ([14]; read-out: TGI) was over 100 µM. It also gave a GI50 ([14]; read-out: pGI50 (converted)) of 10.5 µM, a CC50 [14, 22] of over 100 µM and a TGI ([14]; read-out: pTGI) of over 100 µM. The GI50 ([15]; read-out: GI50) was 2.67 µM, the CC50 [15, 21] was over 100 µM and the TGI ([15]; read-out: TGI) was 10.7 µM. It also gave a GI50 ([15]; read-out: pGI50 (converted)) of 2.69 µM, a CC50 [15, 22] of over 100 µM and a TGI ([15]; read-out: pTGI (converted)) of 10.7 µM. It also gave a GI50 ([16]; read-out: GI50) of 5.43 µM, a CC50 [16, 21] of over 100 µM and a TGI ([16]; read-out: TGI) of over 100 µM. For the same compound, the GI50 ([16]; read-out: pGI50 (converted)) was 5.37 µM, the CC50 [16, 22] was over 100 µM and the TGI ([16]; read-out: pTGI) was over 100 µM. For the same compound, the GI50 ([17]; read-out: GI50) was 5.33 µM, the CC50 [17, 21] was over 100 µM and the TGI ([17]; read-out: TGI) was 70.1 µM. It also gave a GI50 ([17]; read-out: pGI50 (converted)) of 5.37 µM, a CC50 [17, 22] of over 100 µM and a TGI ([17]; read-out: pTGI (converted)) of 70.8 µM. It also gave a GI50 ([18]; read-out: GI50) of 9.3 µM, a CC50 [18, 21] of over 100 µM and a TGI ([18]; read-out: TGI) of over 100 µM. The GI50 ([18]; read-out: pGI50 (converted)) was 9.33 µM, the CC50 [18, 22] was over 100 µM and the TGI ([18]; read-out: pTGI) was over 100 µM. The GI50 ([19]; read-out: GI50) was 13.8 µM, the CC50 [19, 21] was over 100 µM and the TGI ([19]; read-out: TGI) was over 100 µM. For the same compound, the GI50 ([19]; read-out: pGI50 (converted)) was 13.8 µM, the CC50 [19, 22] was over 100 µM and the TGI ([19]; read-out: pTGI) was over 100 µM. It also gave a GI50 ([20]; read-out: GI50) of 2.18 µM, a CC50 [20, 21] of over 100 µM and a TGI ([20]; read-out: TGI) of 8.66 µM. For the same compound, the GI50 ([20]; read-out: pGI50 (converted)) was 2.19 µM, the CC50 [20, 22] was over 100 µM and the TGI ([20]; read-out: pTGI (converted)) was 8.71 µM.
